Assay results published in patent EP0354046A2 (MAY & BAKER LIMITED, priority 1988, dated 1990).

Legend:
Assay type in all cases: in vivo
Echinochloa crus-galli [1] = assay: Glasshouse experiment 2, percentage phytotoxicity after 19 days
Procedure: Agricultural surfactant-nonylphenol ethylene oxide condensate containing 9 moles ethylene oxide was added to all spray dilutions to give 0.2% v/v concentration.
After spraying, the pots were arranged in randomised blocks in a glasshouse, watered as necessary, and assessed after 19 days for percentage phytotoxicity (reduction in green area compared with unsprayed plants) (0 = no effect; 100 = complete destruction).
The results were then used to plot an isobole with a "one-sided effect" according to the methods of P.M.L. Tammes op.cit.

Abutilon theophrasti = assay: Glasshouse experiment 3, % inhibition of growth (fresh weight, 19 days); details: for % inhibition of growth Abutilon theophrasti 1-2 leaves: Compound 126 0 g/ha; for ED₅₀ Abutilon theophrasti 1-2 leaves: applied alone
Procedure: (§1) A series of experiments was carried out to determine the nature of the biological interaction between bromoxynil and five compounds of general formula I on a range of weed species. The 3-benzoyl-piperidine-2,4-dione derivatives were compounds 1, 74, 99, 110 and 126. […] The growth stages of the plants at spraying are also presented with the results. Agricultural surfactant (nonyl phenol ethylene oxide condensate containing 9 moles ethylene oxide marketed as 'Agral') was added to all spray dilutions to give 0.2% v/v concentration.
(§2) After spraying the pots were arranged in randomised blocks in a glasshouse and watered as necessary. After 19 days the fresh weight of vegetation in each pot was determined. The mean fresh weights were used to calculate the percentage inhibition of each species thus [formula]
(§3) E = X + Y […] where E, X and Y are percentage inhibition of growth.
(§4) The ED values were then used to plot an isobole for each species according to the method of P.M.L. Tammes op cit. The results of percentage inhibition of growth, the ED values calculated from them and the calculated expected values are given in Tables 1-8.

Solanum nigrum = assay: as above; details: 2-3 leaves
Procedure: as §1, §2, §3, §4

Echinochloa crus-galli [2] = assay: as above; details: 3 leaves
Procedure: as §1, §2, §3, §4

Brassica kaber = assay: as above; details: for % inhibition of growth Brassica kaber 2-3 leaves: Compound 126 0 g/ha; for ED₉₀ Brassica kaber 2-3 leaves: applied alone
Procedure: as §1, §2, §3, §4

Amaranthus retroflexus = assay: as above; details: for % inhibition of growth Amaranthus retroflexus 2-4 leaves: Compound 126 0 g/ha; for ED₉₀ Amaranthus retroflexus 2-4 leaves: applied alone
Procedure: as §1, §2, §3, §4

Chenopodium album = assay: as above; details: 2-6 leaves
Procedure: as §1, §2, §3, §4

Digitaria sanguinalis = assay: as above; details: for ED₅₀: 3-4 leaves; for ED₉₀: 3 leaves
Procedure: as §1, §2, §3, §4

Eleusine indica = assay: as above
Procedure: as §1, §2, §3, §4

Eleusine indica (ELEIN) = assay: Field experiment, post-emergence spray, % control of grass weed; details: 29 days after application
Procedure: (§5) The following control figures were recorded on the grass weeds Brachiaria plantaginea (BRAPL), Digitaria horizontalis (DIGHO) and Eleusine indica (ELEIN) 29 days after application.

[3] = tested on: Digitaria horizontalis (DIGHO); assay: as above; details: 29 days after application
Procedure: as §5

[4] = tested on: Brachiaria plantaginea (BRAPL); assay: as above; details: 29 days after application
Procedure: as §5

maize var. Irla = assay: Glasshouse experiment 4, percentage phytotoxicity on crop after 11 days; details: for % crop phytotoxicity Maize (3-4 leaves): Bromoxynil 0 g/ha; for ED₂₀ crop phytotoxicity Maize (3-4 leaves): applied alone
Procedure: Agricultural surfactant ('Agral') was added to the spray dilutions to give 0.2%v/v concentration.
After spraying the pots were arranged in randomised blocks in a glasshouse and water as necessary. After 11 days the plants were assessed for percentage phytotoxicity (reduction in green area compared with unsprayed plants (0 = no effect 100 = complete destruction).
E = X + Y […] where E, X and Y are percentage phytotoxicity.
The ED values were then used to plot an isobole for each mixture according to the method of P.M.L. Tammes op cit.

[5] = Bromoxynil alone 2,4,8,16,31 g/ha
[6] = Bromoxynil alone, 2 leaves, Table 6
[7] = Bromoxynil alone, 2 leaves, Table 7
[8] = Abutilon theophrasti, read-out: % inhibition of growth Abutilon theophrasti 1-2 leaves
[9] = Mutarda arvensis, read-out: % inhibition of growth Brassica kaber 2-3 leaves
[10] = Amaranthus retroflexus, read-out: % inhibition of growth Amaranthus retroflexus 2-4 leaves

Compound: N#Cc1cc(Br)c(O)c(Br)c1 [Bromoxynil, 3,5-dibromo-4-hydroxybenzonitrile]
- activity on Echinochloa crus-galli (Echinochloa crus-galli [1]; applied alone): no activity
- ED₉₀ (Abutilon theophrasti; Bromoxynil alone, 1-2 leaves, Table 5): ED₉₀(g/ha) 119.9
- ED₉₀ (Abutilon theophrasti; Bromoxynil alone, 1-2 leaves, Table 6): ED₉₀(g/ha) 129.6
- ED₅₀ (Abutilon theophrasti; Bromoxynil alone, 1-2 leaves, Table 7): ED₅₀(g/ha) 78.6
- ED₅₀ (Abutilon theophrasti; Bromoxynil alone, 3 leaves, Table 1): ED₅₀(g/ha) 106.3
- % inhibition of growth Abutilon theophrasti 1-2 leaves (Abutilon theophrasti; Bromoxynil 18 g/ha): 0%
- % inhibition of growth Abutilon theophrasti 1-2 leaves (Abutilon theophrasti; Bromoxynil 35 g/ha): 13%
- % inhibition of growth Abutilon theophrasti 1-2 leaves (Abutilon theophrasti; Bromoxynil 70 g/ha): 44%
- % inhibition of growth Abutilon theophrasti 1-2 leaves (Abutilon theophrasti; Bromoxynil 140 g/ha): 96%
- % inhibition of growth Abutilon theophrasti 1-2 leaves (Abutilon theophrasti; Bromoxynil 280 g/ha): 99%
- ED₅₀ Abutilon theophrasti 1-2 leaves (Abutilon theophrasti): ED₅₀(g/ha) 135.7
- % inhibition of growth (Solanum nigrum; [5]): 91%
- ED₉₀ (Solanum nigrum; Bromoxynil alone): ED₉₀(g/ha) 21.27
- ED₉₀ (Echinochloa crus-galli [2]; Bromoxynil alone, Table 3): ED₉₀(g/ha) ∞
- ED₉₀ (Brassica kaber; Bromoxynil alone, 2-3 leaves, Table 1): ED₉₀(g/ha) 67.0
- ED₉₀ (Brassica kaber; [6]): ED₉₀(g/ha) 42.7
- ED₉₀ (Brassica kaber; [7]): ED₉₀(g/ha) 63.9
- % inhibition of growth Brassica kaber 2-3 leaves (Brassica kaber; Bromoxynil 18 g/ha): 30%
- % inhibition of growth Brassica kaber 2-3 leaves (Brassica kaber; Bromoxynil 35 g/ha): 55%
- % inhibition of growth Brassica kaber 2-3 leaves (Brassica kaber; Bromoxynil 70 g/ha): 82%
- % inhibition of growth Brassica kaber 2-3 leaves (Brassica kaber; Bromoxynil 140 g/ha): 97%
- % inhibition of growth Brassica kaber 2-3 leaves (Brassica kaber; Bromoxynil 280 g/ha): 98%
- ED₉₀ Brassica kaber 2-3 leaves (Brassica kaber): ED₉₀(g/ha) 102.4
- ED₉₀ (Amaranthus retroflexus; Bromoxynil alone, 2 leaves, Table 1): ED₉₀(g/ha) 120.3
- ED₉₀ (Amaranthus retroflexus; Bromoxynil alone, 2 leaves, Table 5): ED₉₀(g/ha) 142.8
- ED₉₀ (Amaranthus retroflexus; [6]): ED₉₀(g/ha) 142.9
- ED₉₀ (Amaranthus retroflexus; [7]): ED₉₀(g/ha) 246.2
- % inhibition of growth Amaranthus retroflexus 2-4 leaves (Amaranthus retroflexus; Bromoxynil 18 g/ha): 0%
- % inhibition of growth Amaranthus retroflexus 2-4 leaves (Amaranthus retroflexus; Bromoxynil 35 g/ha): 4%
- % inhibition of growth Amaranthus retroflexus 2-4 leaves (Amaranthus retroflexus; Bromoxynil 70 g/ha): 8%
- % inhibition of growth Amaranthus retroflexus 2-4 leaves (Amaranthus retroflexus; Bromoxynil 140 g/ha): 84%
- % inhibition of growth Amaranthus retroflexus 2-4 leaves (Amaranthus retroflexus; Bromoxynil 280 g/ha): 90%
- ED₉₀ Amaranthus retroflexus 2-4 leaves (Amaranthus retroflexus): ED₉₀(g/ha) 233.3
- % inhibition of growth (Chenopodium album; [5]): 21%
- ED₉₀ (Chenopodium album; Bromoxynil alone): ED₉₀(g/ha) 69.34
- ED₅₀ (Digitaria sanguinalis; Bromoxynil alone, Table 2): ED₅₀ (g/ha) ∞
- ED₉₀ (Digitaria sanguinalis; Bromoxynil alone, Table 3): ED₉₀(g/ha) ∞
- ED₉₀ (Eleusine indica; Bromoxynil alone, 3-4 leaves, Table 2): ED₉₀ (g/ha) ∞
- ED₉₀ (Eleusine indica; Bromoxynil alone, 3 leaves, Table 3): ED₉₀(g/ha) ∞
- % control observed (Eleusine indica (ELEIN); Bromoxynil 250g/ha): 0%
- % control observed ([3]; Bromoxynil 250g/ha): 0%
- % control observed ([4]; Bromoxynil 250g/ha): 0%

Compound: CS(=O)(=O)c1ccc(C(=O)C2C(=O)CCNC2=O)c([N+](=O)[O-])c1 (stereo not shown) [Compound 110, 3-(4-methylsulphonyl-2-nitrobenzoyl)piperidine-2,4-dione]
- ED₅₀ (Abutilon theophrasti; Compound 110 alone, 1-2 leaves): ED₅₀(g/ha) 22.3
- ED₉₀ (Brassica kaber; Compound 110 alone, 2 leaves): ED₉₀(g/ha) 13.6
- % inhibition of growth (Amaranthus retroflexus; Compound 110 alone 1,2,4,8,16,31,63 g/ha, 2 leaves): 100%
- ED₉₀ (Amaranthus retroflexus; Compound 110 alone, 2 leaves): ED₉₀(g/ha) 12.6

Compound: CS(=O)(=O)c1ccc(C(=O)C2C(=O)CCNC2=O)c(Cl)c1 (stereo not shown) [Compound 126, 3-(2-chloro-4-methylsulphonylbenzoyl)piperidine-2,4-dione]
- inhibition at 1 g/ha (Abutilon theophrasti; [8]): 0%
- inhibition at 2 g/ha (Abutilon theophrasti; [8]): 38%
- inhibition at 4 g/ha (Abutilon theophrasti; [8]): 56%
- inhibition at 8 g/ha (Abutilon theophrasti; [8]): 68%
- inhibition at 16 g/ha (Abutilon theophrasti; [8]): 88%
- inhibition at 31 g/ha (Abutilon theophrasti; [8]): 94%
- inhibition at 63 g/ha (Abutilon theophrasti; [8]): 96%
- ED₅₀ Abutilon theophrasti 1-2 leaves (Abutilon theophrasti): ED₅₀(g/ha) 20.1
- inhibition at 1 g/ha (Brassica kaber; [9]): 0%
- inhibition at 2 g/ha (Brassica kaber; [9]): 0%
- inhibition at 4 g/ha (Brassica kaber; [9]): 0%
- inhibition at 8 g/ha (Brassica kaber; [9]): 17%
- inhibition at 16 g/ha (Brassica kaber; [9]): 26%
- inhibition at 31 g/ha (Brassica kaber; [9]): 48%
- inhibition at 63 g/ha (Brassica kaber; [9]): 80%
- ED₉₀ Brassica kaber 2-3 leaves (Brassica kaber): ED₉₀(g/ha) 90.6
- inhibition at 1 g/ha (Amaranthus retroflexus; [10]): 0%
- inhibition at 2 g/ha (Amaranthus retroflexus; [10]): 50%
- inhibition at 4 g/ha (Amaranthus retroflexus; [10]): 91%
- inhibition at 8 g/ha (Amaranthus retroflexus; [10]): 91%
- inhibition at 16 g/ha (Amaranthus retroflexus; [10]): 99%
- inhibition at 31 g/ha (Amaranthus retroflexus; [10]): 100%
- inhibition at 63 g/ha (Amaranthus retroflexus; [10]): 100%
- ED₉₀ Amaranthus retroflexus 2-4 leaves (Amaranthus retroflexus): ED₉₀(g/ha) 7.6

Compound: O=C1CCNC(=O)C1C(=O)c1ccc(C(F)(F)F)cc1[N+](=O)[O-] (stereo not shown) [Compound 74, 3-(2-nitro-4-trifluoromethylbenzoyl)piperidine-2,4-dione]
- ED₉₀ (Echinochloa crus-galli [1]; Compound 74 alone, dose giving 90% phytotoxicity): 82 g/ha
- % crop phytotoxicity Maize (3-4 leaves) (maize var. Irla; Compound (74 or 99) 63 g/ha): 0%
- % crop phytotoxicity Maize (3-4 leaves) (maize var. Irla; Compound (74 or 99) 125 g/ha): 0%
- % crop phytotoxicity Maize (3-4 leaves) (maize var. Irla; Compound (74 or 99) 250 g/ha): 3%
- % crop phytotoxicity Maize (3-4 leaves) (maize var. Irla; Compound (74 or 99) 500 g/ha): 6%
- % crop phytotoxicity Maize (3-4 leaves) (maize var. Irla; Compound (74 or 99) 1000 g/ha): 17%
- % crop phytotoxicity Maize (3-4 leaves) (maize var. Irla; Compound (74 or 99) 2000 g/ha): 63%
- ED₂₀ crop phytotoxicity Maize (3-4 leaves) (maize var. Irla): ED₂₀(g/ha) 780
- ED₉₀ (Abutilon theophrasti; Compound 74 alone, 1-2 leaves): ED₉₀(g/ha) 125.6
- ED₉₀ (Solanum nigrum; Compound 74 alone): ED₉₀(g/ha) 21.45
- ED₉₀ (Echinochloa crus-galli [2]; Compound 74 alone): ED₉₀(g/ha) 168.6
- ED₉₀ (Amaranthus retroflexus; Compound 74 alone, 2 leaves): ED₉₀(g/ha) 22.1
- ED₉₀ (Chenopodium album; Compound 74 alone): ED₉₀(g/ha) 3.67
- ED₉₀ (Digitaria sanguinalis; Compound 74 alone): ED₉₀(g/ha) 180.4
- ED₉₀ (Eleusine indica; Compound 74 alone, 3 leaves): ED₉₀(g/ha) 260.4

Compound: CC1(C)CC(=O)C(C(=O)c2ccc(C(F)(F)F)cc2[N+](=O)[O-])C(=O)N1 (stereo not shown) [Compound 99, 3-(2-nitro-4-trifluoromethylbenzoyl)-6,6-dimethylpiperidine-2,4-dione]
- % crop phytotoxicity Maize (3-4 leaves) (maize var. Irla; Compound (74 or 99) 63 g/ha): 0%
- % crop phytotoxicity Maize (3-4 leaves) (maize var. Irla; Compound (74 or 99) 125 g/ha): 0%
- % crop phytotoxicity Maize (3-4 leaves) (maize var. Irla; Compound (74 or 99) 250 g/ha): 0%
- % crop phytotoxicity Maize (3-4 leaves) (maize var. Irla; Compound (74 or 99) 500 g/ha): 4%
- % crop phytotoxicity Maize (3-4 leaves) (maize var. Irla; Compound (74 or 99) 1000 g/ha): 50%
- % crop phytotoxicity Maize (3-4 leaves) (maize var. Irla; Compound (74 or 99) 2000 g/ha): 51%
- ED₂₀ crop phytotoxicity Maize (3-4 leaves) (maize var. Irla): ED₂₀(g/ha) 797
- ED₉₀ (Abutilon theophrasti; Compound 99 alone, 1-2 leaves): ED₉₀(g/ha) 23.6
- ED₉₀ (Brassica kaber; Compound 99 alone, 2 leaves): ED₉₀(g/ha) 54.9
- ED₉₀ (Amaranthus retroflexus; Compound 99 alone, 2 leaves): ED₉₀(g/ha) 16.8

Compound: CC1(C)CC(=O)C(C(=O)c2ccc(Cl)cc2[N+](=O)[O-])C(=O)N1 (stereo not shown) [Compound 1, 3-(4-chloro-2-nitrobenzoyl)-6,6-dimethylpiperidine-2,4-dione]
- ED₅₀ (Abutilon theophrasti; Compound 1 alone, 3 leaves): ED₅₀(g/ha) 21.1
- ED₉₀ (Brassica kaber; Compound 1 alone, 2-3 leaves): ED₉₀(g/ha) 58.1
- ED₉₀ (Amaranthus retroflexus; Compound 1 alone, 2 leaves): ED₉₀(g/ha) 21.6
- ED₅₀ (Digitaria sanguinalis; Compound 1 alone): ED₅₀ (g/ha) 21.6
- ED₉₀ (Eleusine indica; Compound 1 alone, 3-4 leaves): ED₉₀ (g/ha) 66.8
- % control observed (Eleusine indica (ELEIN); Compound 1 @ 250g/ha): 70%
- % control observed (Eleusine indica (ELEIN); Compound 1 @ 500g/ha): 80%
- % control observed ([3]; Compound 1 @ 250g/ha): 70%
- % control observed ([3]; Compound 1 @ 500g/ha): 80%
- % control observed ([4]; Compound 1 @ 250g/ha): 60%
- % control observed ([4]; Compound 1 @ 500g/ha): 80%
